Consider 2 compounds from paper PMC7806935, “Exosite inhibition of ADAMTS-5 by a glycoconjugated arylsulfonamide” (Scientific Reports, 2021).

For the test, the target named is T1, ADAMTS-4 (Homo sapiens, UniProt O75173).
T1 construct: made in house
T1 sequence (O75173 213-837): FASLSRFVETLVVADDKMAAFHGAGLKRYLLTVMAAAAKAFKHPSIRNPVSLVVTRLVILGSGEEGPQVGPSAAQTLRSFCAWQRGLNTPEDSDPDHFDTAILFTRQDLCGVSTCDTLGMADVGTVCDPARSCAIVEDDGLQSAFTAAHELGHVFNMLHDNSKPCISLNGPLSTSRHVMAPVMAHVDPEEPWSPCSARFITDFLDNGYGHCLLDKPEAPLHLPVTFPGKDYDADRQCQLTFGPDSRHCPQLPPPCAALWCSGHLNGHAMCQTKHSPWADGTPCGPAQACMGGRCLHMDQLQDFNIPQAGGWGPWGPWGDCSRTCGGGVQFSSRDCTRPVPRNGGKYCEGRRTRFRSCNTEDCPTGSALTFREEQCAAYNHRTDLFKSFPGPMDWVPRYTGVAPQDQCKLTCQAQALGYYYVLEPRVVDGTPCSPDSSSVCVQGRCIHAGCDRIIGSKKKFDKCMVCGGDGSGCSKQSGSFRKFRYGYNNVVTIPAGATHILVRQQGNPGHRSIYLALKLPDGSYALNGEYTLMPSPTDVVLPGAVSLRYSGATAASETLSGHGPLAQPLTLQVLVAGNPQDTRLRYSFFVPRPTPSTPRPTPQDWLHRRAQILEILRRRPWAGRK
The test can be described thus: QF peptide cleavage assay, ADAMTS-4. The test is classed as biochemical. As to conditions: 12-residue QF peptide substrate; mean ± SEM (n = 3); read-out: IC50 (μM) QF peptide ATS4. How it is done:
All enzyme assays were conducted in TNC-B buffer (50 mM Tris–HCl, pH 7.5, 150 mM NaCl, 10 mM CaCl2, and 0.02% NaN3) at 37 °C. To avoid the formation of inhibitor aggregates, the detergent Brij-35 (0.05%) was added to the assay buffer. No aggregation was visually observed at concentrations up to 2 mM. The inhibitor stock solutions in DMSO (10 mM) were diluted at different concentrations in assay buffer and incubated with ADAMTS-4 or ADAMTS-5 for 2 h at 37 °C. Percent of inhibition was calculated from control reactions containing only DMSO. IC50 values were determined using the formula: vi/v0 = 1/(1 + [I]/IC50) where vi is the initial velocity of substrate cleavage in the presence of the inhibitor at concentration [I] and v0 is the initial velocity in the presence of an equal concentration (v/v) of DMSO.
QF peptide cleavage assays were conducted in 96-well black microtiter plates (Scientific Laboratories Supplies Ltd, Wilford, UK) using a Fluostar Omega microplate reader (BMG Labtech, Aylesbury, UK). The activity of ADAMTS-4 (1 nM) and -5 (5 nM) was monitored for 2 h using the fluorescent peptide substrates fluorescein 5(6)-carbonyl-Ala-Glu-Leu-[…]-Gly-Arg-Pro-Ile-Ser-Ile-Ala-Lys-N,N,N0,N0-tetramethyl-6-carboxyrhodamine-NH2 (FAM-AE ~ LQGRPISIAK-TAMRA, ADAMTS-4) and fluorescein 5(6)-carbonyl-Thr-Glu-Ser-Glu ~ Ser-Arg-Gly-Ala-Ile-Tyr-Lys-Lys-N,N,N0,N0-tetramethyl-6-carboxyrhodamine-NH2 (FAM-TESE ~ SRGAIYKK-TAMRA, ADAMTS-5) (custom-synthesized by Bachem, Bubendorf, Switzerland) with an excitation wavelength of 485 nm and an emission wavelength of 538 nm. Final substrate concentrations were 1 μM and 40 μM for ADAMTS-4 and -5, respectively. Fluorescence was expressed in relative fluorescence units (RFU) and normalized against a blank containing only buffer and substrate. Emission spectra were recorded at several concentrations of each compound to exclude auto-fluorescence and maximal inhibitor concentrations were selected accordingly.

The IC50 is the concentration that gives 50% inhibition.

Some results are limits rather than exact numbers.

With `CCC(C)N(Cc1cn(CCCOC2OC(CO)C(O)C(O)C2NC(C)=O)nn1)S(=O)(=O)c1ccc(-c2ccccc2)cc1` (mixture of isomers) [Compound 4b], the IC50 was above 50 µM. With `CCC(C)N(Cc1cn(CCCOC(=O)c2ccccc2)nn1)S(=O)(=O)c1ccc(-c2ccccc2)cc1` (racemic) [Compound 6], the IC50 was above 50 µM.
